According to US7183252B2, “Indole peptidomimetics as thrombin receptor antagonists” (Ortho-McNeil Pharmaceutical, Inc., priority 1999, dated 2007):
Where two headings read alike, the source gives them in different places.

Tests used:
gel-filtered platelets = assay: In vitro inhibition of thrombin-induced gel-filtered platelet aggregation; assay type: cell-based; details: human gel-filtered platelets, agonist thrombin 50 μL of 1 unit/mL, read-out: Thrmb IC50 (Thrombin-induced aggregation of gel-filtered platelets)
Outline: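 Gel-filtered (Sepharose 2B) human platelets from citrated PRP, 2×10^7 per sample, in Tyrode's buffer pH 7.4 with BSA and added calcium, preincubated with test compound. Aggregation induced by thrombin (50 μL of 1 unit/mL) and followed as light transmission over 3 min. Inhibition is taken relative to control-treated platelets.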

[1] = target: T1, thrombin receptor (PAR-1) (Homo sapiens, UniProt P25116); assay: In vitro thrombin receptor binding assay (CHRF membranes); details: tritiated 721-40 radioligand, read-out: Bndg IC50 (Thrombin receptor binding)
T1 construct: CHRF membranes (Jones, Biochim. Biophys. Acta 1992, 1136, 272) are thawed from −70° C; endogenous in cells; host or cells: CHRF cell membranes
T1 sequence (P25116 22-425): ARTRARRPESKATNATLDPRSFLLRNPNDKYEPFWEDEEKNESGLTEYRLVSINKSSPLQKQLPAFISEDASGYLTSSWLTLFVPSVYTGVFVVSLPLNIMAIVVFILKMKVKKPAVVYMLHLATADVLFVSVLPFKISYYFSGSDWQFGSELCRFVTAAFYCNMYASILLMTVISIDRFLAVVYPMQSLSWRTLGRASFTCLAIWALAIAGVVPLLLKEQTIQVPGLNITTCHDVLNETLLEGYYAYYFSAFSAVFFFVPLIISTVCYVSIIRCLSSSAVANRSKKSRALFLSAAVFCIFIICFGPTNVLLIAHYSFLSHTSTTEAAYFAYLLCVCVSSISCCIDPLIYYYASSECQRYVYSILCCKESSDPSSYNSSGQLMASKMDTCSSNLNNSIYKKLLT
Outline: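 CHRF cell membranes incubated 30 min with tritiated peptide agonist 721–40 and compound at 3.7 μg/mL final (0.6% DMSO) in HEPES/MgCl2/BSA buffer. Nonspecific binding defined with unlabeled 721–40; bound radioactivity counted after filtration onto PEI-treated filters.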

NCCNC(=O)[C@@H](Cc1ccncc1)NC(=O)[C@@H](Cc1ccc(F)c(F)c1)NC(=O)c1ccc2c(CN3CCCC3)cn(Cc3c(Cl)cccc3Cl)c2c1 [Compound 176]
IC50 (gel-filtered platelets): 45.7 µM | IC50 [1]: 43.2 µM

NCCNC(=O)[C@H](Cc1cccs1)NC(=O)[C@H](Cc1ccc(Cl)cc1)NC(=O)c1ccc2c(CN3CCCC3)cn(Cc3c(Cl)cccc3Cl)c2c1 [Compound 177]
IC50 (gel-filtered platelets; Platelet): 4.4 µM | IC50 [1]: 0.62 µM

NCCNC(=O)[C@@H](Cc1cccs1)NC(=O)[C@@H](Cc1ccc(Cl)cc1)NC(=O)c1ccc2c(CN3CCCC3)cn(Cc3c(Cl)cccc3Cl)c2c1 [Compound 178]
IC50 (gel-filtered platelets; Platelet): 40.7 µM | IC50 [1]: 9.9 µM
